From patent US20100311714A1, “1H-IMIDAZO[4,5-c]QUINOLINONE COMPOUNDS” (priority 2009, published 2010)
Read-outs that look alike come from different tables or passages of the source.

Assays:
[1] = system: S6 Ribosomal Protein phosphorylation Ser235/236 in TSC1 null mouse embryo fibroblast (MEF) cells; assay: Reverse protein array, S6 Ribosomal Protein phosphorylation in TSC1 null MEF cells; assay type: cell-based; details: 1 h, TSC1-/- MEFs, 60 minutes
How it was run: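 Phospho-S6 (Ser235/236) was quantified by reverse protein array of cell lysates with a phospho-specific primary antibody. […]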

PI3K beta = target: T1, PI3K beta (Homo sapiens, UniProt P42338); assay: PI3K beta kinase assay (Kinase-Glo luminescence); assay type: biochemical
T1 construct: for the full-length p110-b subunit are generated and fused by overlapping PCR; His tag (C); made in house; host or cells: baculovirus BV949; Tn5 (Trichoplusia ni) or TiniPro insect cells
T1 sequence (P42338 with tags, fused parts or gaps limits assumed): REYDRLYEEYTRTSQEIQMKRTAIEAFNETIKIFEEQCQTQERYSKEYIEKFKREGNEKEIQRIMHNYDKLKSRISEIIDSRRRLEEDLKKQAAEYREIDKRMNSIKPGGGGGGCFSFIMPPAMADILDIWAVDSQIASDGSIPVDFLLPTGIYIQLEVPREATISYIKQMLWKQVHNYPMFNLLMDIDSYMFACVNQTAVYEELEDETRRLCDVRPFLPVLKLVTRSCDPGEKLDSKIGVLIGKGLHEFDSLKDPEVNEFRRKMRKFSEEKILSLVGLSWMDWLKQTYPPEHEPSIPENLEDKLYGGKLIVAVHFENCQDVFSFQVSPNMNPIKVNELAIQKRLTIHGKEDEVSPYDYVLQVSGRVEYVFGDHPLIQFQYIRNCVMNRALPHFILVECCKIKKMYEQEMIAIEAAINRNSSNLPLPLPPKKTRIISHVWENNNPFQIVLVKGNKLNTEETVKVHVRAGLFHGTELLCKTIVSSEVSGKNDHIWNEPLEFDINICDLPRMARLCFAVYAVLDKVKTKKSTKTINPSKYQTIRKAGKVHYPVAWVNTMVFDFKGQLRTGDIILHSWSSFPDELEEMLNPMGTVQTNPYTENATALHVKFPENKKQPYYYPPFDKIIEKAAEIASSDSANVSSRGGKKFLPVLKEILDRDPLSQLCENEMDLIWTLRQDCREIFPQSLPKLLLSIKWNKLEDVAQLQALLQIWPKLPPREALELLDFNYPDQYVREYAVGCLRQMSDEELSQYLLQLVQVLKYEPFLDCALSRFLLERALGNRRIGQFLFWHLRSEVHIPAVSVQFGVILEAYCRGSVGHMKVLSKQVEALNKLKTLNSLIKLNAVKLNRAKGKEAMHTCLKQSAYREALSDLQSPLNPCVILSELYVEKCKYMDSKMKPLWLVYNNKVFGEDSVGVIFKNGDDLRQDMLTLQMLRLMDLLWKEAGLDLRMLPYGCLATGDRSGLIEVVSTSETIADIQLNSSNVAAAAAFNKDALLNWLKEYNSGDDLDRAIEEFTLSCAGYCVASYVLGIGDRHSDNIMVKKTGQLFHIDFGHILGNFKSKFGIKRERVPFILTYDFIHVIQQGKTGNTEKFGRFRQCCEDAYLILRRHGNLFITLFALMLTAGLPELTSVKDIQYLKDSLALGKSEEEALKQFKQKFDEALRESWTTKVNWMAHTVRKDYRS
How it was run: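 PI3Kβ construct BV949 (p85 iSH2–p110β full-length, C-His), 25 nM, reacted with 1 μM ATP and 10 μg/mL phosphatidylinositol in Tris pH 7.5, MgCl2, NaCl, CHAPS, DTT buffer, 60 min at room temperature. Remaining ATP by Kinase-Glo luminescence; IC50 from 4-parameter logistic fit of 8 concentrations.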

| IC50 (PI3K beta; read-out: EPK_PI3Kbeta/IC50) | IC50 (PI3K beta; read-out: PI3Kbeta/IC50) | Compound | IC50 ([1]; read-out: p-S6 IC50) | IC50 ([1]; read-out: p-S6) |
| --- | --- | --- | --- | --- |
| 1070 nM | – | CNc1ncc(-c2ccc3ncc4c(c3c2)n(-c2ccc(N3CC[C@H](O)C3)nc2C)c(=O)n4C)cc1F [Example 32.2, 8-(5-Fluoro-6-methylamino-pyridin-3-yl)-1-[6-((S)-3-hydroxy-pyrrolidin-1-yl)-2-methyl-pyridin-3-yl]-3-methyl-1,3-dihydro-imidazo[4,5-c]quinolin-2-one] | 1 nM | – |
| 429 nM | – | CCOc1cc(-c2ccc3ncc4c(c3c2)n(-c2ccc(OCCOC)nc2C)c(=O)n4C)cnc1COC [Example 22.1, 8-(5-Ethoxy-6-methoxymethyl-pyridin-3-yl)-1-[6-(2-methoxy-ethoxy)-2-methyl-pyridin-3-yl]-3-methyl-1,3-dihydro-imidazo[4,5-c]quinolin-2-one] | 7 nM | – |
| < 3 nM | – | Cc1nc(N(C)CCO)ccc1-n1c(=O)n(C)c2cnc3ccc(-c4cnc(N)c(C(F)(F)F)c4)cc3c21 [Example 26.1, 8-(6-Amino-5-trifluoromethyl-pyridin-3-yl)-1-{6-[(2-hydroxy-ethyl)-methyl-amino]-2-methyl-pyridin-3-yl}-3-methyl-1,3-dihydro-imidazo[4,5-c]quinolin-2-one] | < 0.457 nM | – |
| 152 nM | – | CCOc1cc(-c2ccc3ncc4c(c3c2)n(-c2ccc(F)nc2C)c(=O)n4C)cnc1COC [Example 7.5, 8-(5-Ethoxy-6-methoxymethyl-pyridin-3-yl)-1-(6-fluoro-2-methyl-pyridin-3-yl)-3-methyl-1,3-dihydro-imidazo[4,5-c]quinolin-2-one] | 21 nM | – |
| – | 452 nM | CCOc1ccc(-c2ccc3ncc4c(c3c2)n(-c2ccc(F)nc2C)c(=O)n4C)cn1 [Example 7.3, 8-(6-Ethoxy-pyridin-3-yl)-1-(6-fluoro-2-methyl-pyridin-3-yl)-3-methyl-1,3-dihydro-imidazo[4,5-c]quinolin-2-one] | – | 84.3 nM |
| 454 nM | – | CCNc1ncc(-c2ccc3ncc4c(c3c2)n(-c2ccc(N3CC[C@@H](O)C3)nc2C)c(=O)n4C)cc1COCC [Example 34.4, 8-(5-Ethoxymethyl-6-ethylamino-pyridin-3-yl)-1-[6-((R)-3-hydroxy-pyrrolidin-1-yl)-2-methyl-pyridin-3-yl]-3-methyl-1,3-dihydro-imidazo[4,5-c]quinolin-2-one] | 8 nM | – |
| 216 nM | – | Cc1nc(N2CC[C@H](O)C2)ccc1-n1c(=O)n(C)c2cnc3ccc(-c4cncc(OC(C)C)c4)cc3c21 [Example 32.8, 1-[6-((S)-3-Hydroxy-pyrrolidin-1-yl)-2-methyl-pyridin-3-yl]-8-(5-isopropoxy-pyridin-3-yl)-3-methyl-1,3-dihydro-imidazo[4,5-c]quinolin-2-one] | 2.2 nM | – |
| 134 nM | – | CCNc1ncc(-c2ccc3ncc4c(c3c2)n(-c2ccc(N3CC[C@@H](O)C3)nc2C)c(=O)n4C)cc1C(F)(F)F [Example 34.2, 8-(6-Ethylamino-5-trifluoromethyl-pyridin-3-yl)-1-[6-((R)-3-hydroxy-pyrrolidin-1-yl)-2-methyl-pyridin-3-yl]-3-methyl-1,3-dihydro-imidazo[4,5-c]quinolin-2-one] | 1.9 nM | – |
| 69 nM | – | CNc1ncc(-c2ccc3ncc4c(c3c2)n(-c2ccc(N3CC(O)C3)nc2C)c(=O)n4C)cc1C(F)(F)F [Example 29.4, 1-[6-(3-Hydroxy-azetidin-1-yl)-2-methyl-pyridin-3-yl]-3-methyl-8-(6-methylamino-5-trifluoromethyl-pyridin-3-yl)-1,3-dihydro-imidazo[4,5-c]quinolin-2-one] | 1.7 nM | – |
| 291 nM | – | CCOc1cc(-c2ccc3ncc4c(c3c2)n(-c2ccc(N3CCCC3)nc2C)c(=O)n4C)cnc1COC [Example 25.2, 8-(5-Ethoxy-6-methoxymethyl-pyridin-3-yl)-3-methyl-1-(2-methyl-6-pyrrolidin-1-yl-pyridin-3-yl)-1,3-dihydro-imidazo[4,5-c]quinolin-2-one] | 2 nM | – |
| – | 263 nM | CNc1ccc(-c2ccc3ncc4c(c3c2)n(-c2ccc(F)nc2C)c(=O)n4C)cn1 [Example 7.4, 1-(6-Fluoro-2-methyl-pyridin-3-yl)-3-methyl-8-(6-methylamino-pyridin-3-yl)-1,3-dihydro-imidazo[4,5-c]quinolin-2-one] | – | 8.52 nM |
| 99 nM | – | CNc1ncc(-c2ccc3ncc4c(c3c2)n(-c2ccc(N(C)CCO)nc2C)c(=O)n4C)cn1 [Example 26.2, 1-{6-[(2-Hydroxy-ethyl)-methyl-amino]-2-methyl-pyridin-3-yl}-3-methyl-8-(2-methylamino-pyrimidin-5-yl)-1,3-dihydro-imidazo[4,5-c]quinolin-2-one] | < 0.457 nM | – |
| – | 577 nM | Cc1ncccc1-n1c(=O)n(C)c2cnc3ccc(-c4ccc(C(N)=O)cc4)cc3c21 [Example 2.3, 4-[3-Methyl-1-(2-methyl-pyridin-3-yl)-2-oxo-2,3-dihydro-1H-imidazo[4,5-c]quinolin-8-yl]-benzamide] | – | 56.4 nM |
| – | 309 nM | Cc1nc(F)ccc1-n1c(=O)n(C)c2cnc3ccc(-c4cnc5c(ccn5C)c4)cc3c21 [Example 7.2, 1-(6-Fluoro-2-methyl-pyridin-3-yl)-3-methyl-8-(1-methyl-1H-pyrrolo[2,3-b]pyridin-5-yl)-1,3-dihydro-imidazo[4,5-c]quinolin-2-one] | – | 17.9 nM |
| – | 109 nM | Cc1cccnc1-n1c(=O)n(C)c2cnc3ccc(-c4cnc(N)c(C(F)(F)F)c4)cc3c21 [Example 3.12, 8-(6-Amino-5-trifluoromethyl-pyridin-3-yl)-3-methyl-1-(3-methyl-pyridin-2-yl)-1,3-dihydro-imidazo[4,5-c]quinolin-2-one] | – | 13.2 nM |
| 782 nM | – | Cc1ncccc1-n1c(=O)n(C)c2cnc3ccc(-c4cncc(N5CCC5)c4)cc3c21 [Example 2.29, 8-(5-Azetidin-1-yl-pyridin-3-yl)-3-methyl-1-(2-methyl-pyridin-3-yl)-1,3-dihydro-imidazo[4,5-c]quinolin-2-one] | 5 nM | – |
| 40 nM | – | Cc1ncccc1-n1c(=O)n(C)c2cnc3ccc(-c4cncc(NC(C)C)c4)cc3c21 [Example 2.24, 8-(5-Isopropylamino-pyridin-3-yl)-3-methyl-1-(2-methyl-pyridin-3-yl)-1,3-dihydro-imidazo[4,5-c]quinolin-2-one] | 4 nM | – |
| – | 14 nM | Cc1ncccc1-n1c(=O)n(C)c2cnc3ccc(-c4cnc(N)c(C(F)(F)F)c4)cc3c21 [Example 2.11, 8-(6-Amino-5-trifluoromethyl-pyridin-3-yl)-3-methyl-1-(2-methyl-pyridin-3-yl)-1,3-dihydro-imidazo[4,5-c]quinolin-2-one] | – | 2.35 nM |
| 563 nM | – | CCOc1cc(-c2ccc3ncc4c(c3c2)n(-c2cccnc2C)c(=O)n4C)cnc1COC [Example 2.28, 8-(5-Ethoxy-6-methoxymethyl-pyridin-3-yl)-3-methyl-1-(2-methyl-pyridin-3-yl)-1,3-dihydro-imidazo[4,5-c]quinolin-2-one] | 14 nM | – |
| 1010 nM | – | CNc1ncc(-c2ccc3ncc4c(c3c2)n(-c2ccc(N3CC(F)(F)C3)nc2C)c(=O)n4C)cn1 [Example 24.1, 1-[6-(3,3-Difluoro-azetidin-1-yl)-2-methyl-pyridin-3-yl]-3-methyl-8-(2-methylamino-pyrimidin-5-yl)-1,3-dihydro-imidazo[4,5-c]quinolin-2-one] | 2 nM | – |
| – | 491 nM | COc1ncccc1-n1c(=O)n(C)c2cnc3ccc(-c4ccc(C(N)=O)cc4)cc3c21 [Example 1.6, 4-[1-(2-Methoxy-pyridin-3-yl)-3-methyl-2-oxo-2,3-dihydro-1H-imidazo[4,5-c]quinolin-8-yl]-benzamide] | – | 21.9 nM |
| 277 nM | – | COc1cc(-c2ccc3ncc4c(c3c2)n(-c2ccc(N3CC(O)C3)nc2C)c(=O)n4C)cnc1CO [Example 29.5, 1-[6-(3-Hydroxy-azetidin-1-yl)-2-methyl-pyridin-3-yl]-8-(6-hydroxymethyl-5-methoxy-pyridin-3-yl)-3-methyl-1,3-dihydro-imidazo[4,5-c]quinolin-2-one] | 39.1 nM | – |
| 36 nM | – | CCNc1cc(-c2ccc3ncc4c(c3c2)n(-c2ccc(N3CCC3)nc2C)c(=O)n4C)cnc1CO [Example 23.8, 1-(6-Azetidin-1-yl-2-methyl-pyridin-3-yl)-8-(5-ethylamino-6-hydroxymethyl-pyridin-3-yl)-3-methyl-1,3-dihydro-imidazo[4,5-c]quinolin-2-one] | 6 nM | – |
| 45 nM | – | Cc1nc(F)ccc1-n1c(=O)n(C)c2cnc3ccc(-c4cncc(C(C)(C)O)c4)cc3c21 [Example 7.8, 1-(6-Fluoro-2-methyl-pyridin-3-yl)-8-[5-(1-hydroxy-1-methyl-ethyl)-pyridin-3-yl]-3-methyl-1,3-dihydro-imidazo[4,5-c]quinolin-2-one] | 10 nM | – |
| 31 nM | – | CNc1cncc(-c2ccc3ncc4c(c3c2)n(-c2cccnc2C)c(=O)n4C)c1 [Example 2.26, 3-Methyl-8-(5-methylamino-pyridin-3-yl)-1-(2-methyl-pyridin-3-yl)-1,3-dihydro-imidazo[4,5-c]quinolin-2-one] | 6 nM | – |
| – | 133 nM | Cc1ncccc1-n1c(=O)n(C)c2cnc3ccc(-c4ccc(N)nc4)cc3c21 [Example 2.7, 8-(6-Amino-pyridin-3-yl)-3-methyl-1-(2-methyl-pyridin-3-yl)-1,3-dihydro-imidazo[4,5-c]quinolin-2-one] | – | 12.4 nM |
